Results published in patent publication US20230405151A1, “USE OF IRAK4 MODULATORS FOR GENE THERAPY” (Genzyme Corporation, priority 2022, published 2023).

Columns and labels:
[1] = tested on: phosphorylation of IRAK4 kinase target protein NFkB; experiment: AlphaLISA SureFire Ultra p-NFκB (Ser536) assay after LPS; format: cell-based, human; conditions: doses 16 nM, 80 nM, 400 nM and 2000 nM; LPS 300 ng/ml
Experimental: IRAK4 targeting drugs and AAV Treatments. Dendritic cells were plated in 96 well plates with 200,000 cells per well. Each treatment was performed in triplicates. Cells were treated with zimlovisertib IRAK4 inhibitor (Synonyms: PF-06650833) Cat. No.: HY-19836 (MedChemExpress) and PROTAC IRAK4 degrader-1 Cat. No.: HY-129966 (MedChemExpress) at 16 nm, 80 nm, 400 nm and 2000 nm for 18 hrs at 37° C., 5% CO2 in an incubator. After pre-treatment of 18 hrs with the drugs, AAV vectors at 1e5 MOI were used. The cells were incubated at 37° C., 5% CO2 in an incubator for 24 hours. After 24 hours, plates were centrifuged and media supernatant was collected. The clarified media was analyzed by Meso Scale Discovery MSD (world wide web mesoscale.com/products/v-plex-proinflammatory-panel-1-human-kit-k15049d/) performed by DC3 therapeutics https://www.dc3therapeutics.com/services. The experiment outline of PBMC isolation, monocyte purification and dendritic cell differentiation is illustrated in FIG. 1. […]
AlphaLISA assay. […] Finally, SA-donor beads are added and 30 min later plates are read using EnVision-Alpha Reader (615 nm) https://resources.perkinelmer.com/lab-solutions/resources/docs/MAN_AlphaLISA_IRAK4_AL3117.pdf?_gl=1*7jzf5d*_ga*MzQ4MTQ1NzA3LjE2NDY2NzY5MjI.*_ga_W34ZJ1Z1Q1*MTY3NzE5MjAyOS4zLjEuMTY3NzE5MjA2Mi4yNy4wLjA.&_ga=2.178521252.1409175695.1677192029-348145707.1646676922. […]

[2] = tested on: C57BL/6J mice injected with AAV (LacZ transgene); experiment: In vivo mouse AAV model: CD8 TEM and lacZ tetramer staining of PBMCs and splenocytes; conditions: chow 30 mg/kg from 15 days prior to AAV injection; day 14 post AAV; versus AAV group; N=10
Experimental: In-vivo mice experiments. C57BL/6J mice were purchased from Jackson Laboratories. 6-8-week male mice were divided into 3 groups—PBS group, AAV group and AAV+IRAK4 group all groups with 10 mice each. Zimlovisertib IRAK4 inhibitor (Synonyms: PF-06650833) Cat. No.: HY-19836 (MedChemExpress) was mixed with mouse chow Catalog #2016, Teklad Global 16% Protein Rodent Diets https://www.inotivco.com/rodent-natural-ingredient-2016-diets at a dose of 30 mg/kg. AAV+IRAK4 group was fed the chow with Zimlovisertib IRAK4 inhibitor 15 days prior to AAV injection whereas PBS and AAV group were fed with mouse chow Catalog #2016, Teklad Global 16% Protein Rodent Diets https://www.inotivco.com/rodent-natural-ingredient-2016-diets. PBS group mice were injected intramuscularly with 100 ul PBS, AAV group was injected intramuscularly with 1e11 vg per quadricep muscle of both legs, 100 ul volume.
The same experiment design was followed with n=6 mice in each group PBS group, AAV group and AAV+IRAK4 degrader PROTAC IRAK4 degrader-1 Cat. No.: HY-129966 (MedChemExpress) that was mixed with chow at 100 mg/kg and fed to mice 15 days prior to AAV injection. […] AAV capsid used in the study had LacZ transgene. All animal experiments were conducted in accordance with the Institutional Animal Care and Use Committees at Sanofi, Framingham. Submandibular bleeds were performed weekly, and necropsy was performed three weeks post AAV injection.
PBMC isolation and surface staining. 120 ul blood was collected in K2EDTA coated tubes. The blood was mixed with DBPS at 1:1 ration and pipetted into a separate tube containing Ficoll (GE17-5442-02) to ensure no mixing of the blood and Ficoll phases. The mixture was centrifuged at 2000 RPM for 25 minutes at room temperature (9 acceleration and no braking). The buffy coat containing the peripheral blood mononuclear cells (PBMCs) was collected, transferred to a new tube, and centrifuged for five minutes at 400 RCF. PBMCs were washed three times with phosphate buffered saline (PBS) containing 1% fetal bovine serum (FBS) or fetal calf serum (FCS) and counted. The PBMC cells thus obtained were stained with different antibodies to quantify percentage of different immune cell subsets in peripheral blood.
PBMC CD8 TEM and lacZ tetramer staining. The PBMC was isolated from ˜120 μl of mouse blood, and it was transferred to a 96-well U-bottom plate. […]

CC[C@@H]1[C@H](F)C(=O)N[C@@H]1COc1nccc2cc(C(N)=O)c(OC)cc12 [zimlovisertib, 1-[[(2S,3S,4S)-3-Ethyl-4-fluoro-5-oxo-2-pyrrolidinyl]methoxy]-7-methoxy-6-isoquinolinecarboxamide]
Phosphorylation of NFkB induced by LPS [1]: blocks phosphorylation of NFkB at 400 nM and 2000 nM
CD44+CD62L+ effector memory cells in PBMCs [2]: significant reduction
LacZ tetramer positive CD8 T cells in PBMCs [2]: significant reduction
